Measurements published in patent US9290457B2, “Substituted dihydropyrimidinones and their use as inhibitors of neutrophil elastase activity” (Boehringer Ingelheim International GmbH, priority 2014, dated 2016).
Values after ≈ are worked out from the molar mass of the structure shown.

How the values were obtained:
neutrophil elastase [1] = target: T1, neutrophil elastase (Homo sapiens (Human), UniProt P08246); assay: Human Neutrophil Elastase Assay; assay type: biochemical; conditions: substrate MeOSuc-Ala-Ala-Pro-Val-AMC
Target sequence in this assay (P08246 30-247): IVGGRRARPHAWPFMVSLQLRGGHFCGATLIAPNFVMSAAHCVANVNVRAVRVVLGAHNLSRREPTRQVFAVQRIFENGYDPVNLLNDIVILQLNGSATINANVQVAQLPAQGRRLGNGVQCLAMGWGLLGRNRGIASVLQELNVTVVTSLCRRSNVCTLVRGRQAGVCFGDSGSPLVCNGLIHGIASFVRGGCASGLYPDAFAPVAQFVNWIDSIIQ

neutrophil elastase [2] = target: T1, neutrophil elastase; assay: Neutrophil elastase inhibitory activity in human plasma; assay type: biochemical; conditions: zymosan-stimulated human plasma, substrate MeOSuc-Ala-Ala-Pro-Val-AMC
Method: Assay for the Determination of Neutrophil Elastase Inhibitory Activity in Human Plasma
Citrated blood from human healthy donors is mixed with zymosan suspension and incubated at room temperature. This leads to the stimulation of neutrophils and the release of neutrophil elastase into the plasma. The stimulated blood is centrifuged to generate the neutrophil elastase enriched plasma.
Preparation of Zymosan Working Solution:
• A single 45 ml blood sample is taken into a 50 ml tube containing citrate (3.13%, 5 mL) and the tube is gently inverted 4 times. • Immediately after blood sampling, zymosan working solution (5 mL) is added. • After the addition of zymosan working solution, the tubes are capped, mixed gently and incubated at 22° C. for 15 min on a shaker at 20 rpm. • Make 10 ml aliquots after the incubation time. • Centrifuge the 15 ml tubes at 800 g for 15 min at 4° C. in a Jouan centrifuge. • Harvest the plasma and make 1-5 ml aliquots. • Store the plasma at −80° C.
Various concentrations of the neutrophil elastase inhibitor are incubated with plasma. Subsequently, the enzyme activity is measured using the fluorogenic substrate MeOSuc-Ala-Ala-Pro-Val-AMC (Bachem Cat. No. I-1270, substrate concentration: 250 μM, pH 7.5, 25 mM TRIS buffer, 250 mM NaCl) in analogous fashion as described for the human neutrophil assay. A dose response curve is generated to calculate the EC50 of the inhibitor. The analysis of the data is performed by the calculation of the percentage of fluorescence in the presence of the test compound compared to the fluorescence of the vehicle control after subtracting the background fluorescence: An inhibitor of the neutrophil elastase enzyme will give values between 100% control (no inhibition) and 0% control (complete inhibition).
Target sequence in this assay (P08246 30-267): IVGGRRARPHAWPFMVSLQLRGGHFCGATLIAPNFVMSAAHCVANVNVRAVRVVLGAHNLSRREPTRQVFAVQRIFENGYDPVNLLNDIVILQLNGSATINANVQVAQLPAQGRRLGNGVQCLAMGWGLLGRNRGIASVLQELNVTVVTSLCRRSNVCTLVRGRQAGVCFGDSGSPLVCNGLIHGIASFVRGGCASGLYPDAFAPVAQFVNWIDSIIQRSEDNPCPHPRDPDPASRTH

[3] = Metabolic stability with human liver microsomes; assay type: in vitro ADME; conditions: pH 7.6; pooled human liver microsomes, 1 μM compound, 37° C.; read-out: t1/2 INVITRO
Method: Assay for the Determination of Metabolic Stability with Human Liver Microsomes
The metabolic degradation of the test compound is assayed at 37° C. with pooled human liver microsomes. The final incubation volume of 100 μl per time point contains TRIS buffer pH 7.6 (0.1 M), magnesium chloride (5 mM), microsomal protein (1 mg/ml) and the test compound at a final concentration of 1 μM. Following a short preincubation period at 37° C., the reactions are initiated by addition of beta-nicotinamide adenine dinucleotide phosphate, reduced form (NADPH, 1 mM) and terminated by transferring an aliquot into acetonitrile after different time points. Additionally, the NADPH-independent degradation is monitored in incubations without NADPH, terminated at the last time point. The [%] remaining test compound after NADPH independent incubation is reflected by the parameter c(control) (metabolic stability). The quenched incubations are pelleted by centrifugation (10,000 g, 5 min) An aliquot of the supernatant is assayed by LC-MS/MS for the amount of parent compound.
The half-life (t1/2 INVITRO) is determined by the slope of the semilogarithmic plot of the concentration-time profile. The intrinsic clearance (CL_[…]) is calculated by considering the amount of protein in the incubation: CL_[…][μl/min/mg protein]=(ln 2/(half-life[min]*protein content[mg/ml]))*1,000.
The half-life (t1/2 INVITRO) values of selected compounds in the metabolic stability assay human liver microsomes described above are listed in Table 3.

[4] = Drug transport across human Caco-2 cells; assay type: in vitro ADME; conditions: human, Caco-2, pH 7.2, 37° C.
From the text: Assay for Determination of Drug Transport Across Human Caco-2 Cells
The assay provides information on the potential of a compound to pass the cell membrane, on the extent of oral absorption as well as on whether the compound is actively transported by uptake and/or efflux transporters. For the measurement of permeability across polarized, confluent human cancer colon carcinoma cells 2 (Caco-2) cell monolayers grown on permeable filter supports are used as the in vitro absorption model.
Apparent permeability coefficients (PE) of the compounds across the Caco-2 monolayers are measured (pH 7.2, 37° C.) in apical-to-basal (AB) (absorptive) and basal-to-apical (BA) (secretory) transport direction. AB permeability (PEAB) represents drug absorption from the intestine into the blood and BA permeability (PEBA) drug secretion from the blood back into the intestine via both passive permeability as well as active transport mechanisms mediated by efflux and uptake transporters that are expressed on the Caco-2 cells. The compounds are assigned to permeability/absorption classes by comparison of the AB permeabilities with the AB permeabilities of reference compounds with known in vitro permeability and oral absorption in the human. Identical or similar permeabilities in both transport directions indicate passive permeation, vectorial permeability points to additional active transport mechanisms. […] Active transport is concentration-dependently saturable.
Caco-2 cells (1-2*10^5 cells/cm^2 area) are seeded on filter inserts (Costar transwell polycarbonate or PET filters, 0.4 μm pore size) and cultured (DMEM) for 10 to 25 days. Compounds are dissolved in appropriate solvent (like DMSO, 1-20 mM stock solutions). Stock solutions are diluted with HTP-4 buffer (128.13 mM NaCl, 5.36 mM KCl, 1 mM MgSO4, 1.8 mM CaCl2, 4.17 mM NaHCO3, 1.19 mM Na2HPO4x7H2O, 0.41 mM NaH2PO4xH2O, 15 mM HEPES, 20 mM glucose, pH 7.2) to prepare the transport solutions (typically 10 μM compound, final DMSO<=0.5%). The transport solution (TL) is applied to the apical or basolateral donor side for measuring A-B or B-A permeability (3 filter replicates), respectively. The receiver side contains HTP-4 buffer supplemented with 2% BSA. Samples are collected at the start and end of experiment from the donor and at various time intervals for up to 2 hours also from the receiver side for concentration measurement by LC-MS/MS or scintillation counting. Sampled receiver volumes are replaced with fresh receiver solution.
The apparent permeability coefficients (PEAB and PEBA) of selected compounds in the Caco-2 drug transport assay described above are listed in Table 5.

Aqueous solubility = assay type: physicochemical; conditions: McIlvaine buffer with 2.5% DMSO, aqueous buffer, kinetic from dmso stock, McIlvaine buffer pH 6.8, 2.5% DMSO
Method: Assay for Determination of Aqueous Solubility
Starting from a 10 mM DMSO stock solution, aliquots are diluted with acetonitrile/water (1/1) and McIlvaine buffer pH 6.8, respectively. After 24 h of shaking, the solutions or suspensions are filtered and analyzed by LC-UV. The amount dissolved in buffer is compared to the amount dissolved in the acetonitrile/water (1/1) solution. Solubility is measured from 0.001 to 0.125 mg/ml at a DMSO concentration of 2.5%. If more than 90% of the compound is dissolved in buffer, the value is marked with “>”.

| IC50 (neutrophil elastase [1]) | EC50 (neutrophil elastase [2]) | half-life at 1 μM [3] | Papp A→B at 10 μM ([4]; apical-to-basal, read-out: PEAB) | Papp B→A at 10 μM ([4]; basal-to-apical, read-out: PEBA) | solubility at 24 h (Aqueous solubility) | SMILES |
| --- | --- | --- | --- | --- | --- | --- |
| < 1 nM | 6 nM | > 2.17 h | 77 ×10⁻⁶ cm/s | 63 ×10⁻⁶ cm/s | 30 µg/mL (≈ 60.5 µM) | CC(=O)C1=C(C)N(c2cccc(C(F)(F)F)c2)C(=O)N(C)C1c1ccc(C#N)cc1-c1nnc(C)o1 (centres unmarked) [Example 8, 4-[5-Acetyl-3,6-dimethyl-2-oxo-1-(3-trifluoromethyl-phenyl)-1,2,3,4-tetrahydro-pyrimidin-4-yl]-3-(5-methyl-[1,3,4]oxadiazol-2-yl)-benzonitrile] |
| < 1 nM |  |  |  |  |  | COC(=O)c1cc(C#N)ccc1C1C(C(C)=O)=C(C)N(c2cccc(C(F)(F)F)c2)C(=O)N1C (centres unmarked) [Intermediate 5, 2-[5-Acetyl-3,6-dimethyl-2-oxo-1-(3-trifluoromethyl-phenyl)-1,2,3,4-tetrahydro-pyrimidin-4-yl]-5-cyano-benzoic acid methyl ester] |
| 3.93 nM |  |  |  |  |  | CC(=O)C1=C(C)N(c2cccc(C(F)(F)F)c2)C(=O)N(C)C1c1ccc(C#N)cc1C(=O)O (centres unmarked) [Intermediate 6, 2-[5-Acetyl-3,6-dimethyl-2-oxo-1-(3-trifluoromethyl-phenyl)-1,2,3,4-tetrahydro-pyrimidin-4-yl]-5-cyano-benzoic acid] |
